# Results published in patent US20210147812A1, “Method of Preparing Cancer Spheroid and Method of Selecting Colorectal Cancer Patient” (Kyo Diagnostics K.K., priority 2017, published 2021).
# Like-named read-outs stand apart in the source and are kept apart here.
# Assays:
# [1] = tested on: three luciferase-expressing CRC-TIC spheroid lines (HC21T, HC18T, HC25T); assay: Chemical library screening of 80 agonists or activators for growth-promoting effects; format: cell-based; conditions: Homo sapiens, read-out: stimulation of spheroid growth
# Experimental: For growth monitoring assays, luciferase-expressing spheroids were cultured in 2-3 wells of a 12-well cell-culture plate. […] The spheroid cells were resuspended in Matrigel, distributed to the wells of 96-well “white” cell-culture plates (Corning; 3 μl per well) on a plate heater at 37° C., and cultured overnight in 100 μl/well of the medium. Spheroids were rinsed with 100 μl/well of PBS, and incubated with 50 μl of 150 μg/ml luciferin in phenol red-free DMEM/F12 medium (Nacalai) for 10 min at room temperature […]. Luminescence was scored using a conventional imaging device (Gel Doc XR+, BioRad). After this initial measurement, spheroids in each well were rinsed with 100 μl of PBS, and cultured in 100 μl of the medium. Luminescence was determined daily or 3 days later. The cell growth rate for each well was estimated as the proportion of photon counts to those on day 1.
# [2] = tested on: spheroid lines HC6T, HC9T, and HC20T; assay: Drug sensitivity tests in spheroids (GEI); format: cell-based, human; conditions: dose-dependent, FIGS. 16A-16C
# Experimental: (§1) Luciferase-expressing spheroids were cultured in 2-3 wells of a 12-well cell-culture plate (in 60-90 μl Matrigel). […] From the spheroid solution thus obtained, 300 μl was taken and the cells were resuspended in an equal volume of Matrigel. The spheroid cells in Matrigel were distributed to the wells of 96-well “white” cell-culture plates (Corning; 3 μl per well) on a plate heater at 37° C., and cultured overnight in 100 μl/well of the medium. Spheroids were rinsed with 100 μl/well of PBS, and incubated with 50 μl of 150 μg/ml luciferin in phenol red-free DMEM/F12 medium (Nacalai) for 10 min at room temperature (20-28° C.). Luminescence was scored using a conventional imaging device (Gel Doc XR+, BioRad). After this initial measurement, spheroids in each well were rinsed with 100 μl of PBS, and cultured in 100 μl of the medium. Luminescence was determined on day 1 and day 3. Effects of a drug was determined by obtaining GEI (growth effect index), which is the growth rate of a group treated with the drug compared to a control group (a solvent-treated group). Results were shown using means in three independent experiments each conducted in triplicate.
# The spheroid lines shown in Table 3 were used in this example.
# [3] = tested on: two CRC-TIC spheroid lines (HC18T and HC21T); assay: Titration experiments, dose-dependent effects on growth (GEI); format: cell-based, human; conditions: for effect on spheroid growth in titration: at 10 μM
# Experimental: Shown are the plots and means of GEI in three independent experiments. Asterisks indicate significant differences from the solvent-only group (P<0.05; analyzed using one-way ANOVA followed by Tukey's post-test).
# Shown are the mean GEI±SEM (independent experiments, n=3). Asterisks indicate significant differences from the solvent-only (0 μM) group (P<0.05; analyzed using one-way ANOVA followed by Tukey's post-test).
# (§2) Luminescence was determined daily or 3 days later. The cell growth rate for each well was estimated as the proportion of photon counts to those on day 1. Four or six replicates (with similar statistical power) were analyzed for each data point in all experiments except for the chemical compound screening assays.
# [4] = tested on: CRC spheroids (HC18T, HC21T, and HC52T); assay: Morphology of spheroids after treatment with cAMP-signaling activators (phase-contrast micrographs); format: cell-based, human; conditions: 10 μM CV1808, 1 μM NECA, or 1 μM forskolin for five days
# HC21T spheroid line = assay: Titration experiment, growth promotion (GEI); format: cell-based, human
# Experimental: as §2
# [5] = tested on: eleven CRC-TIC spheroid lines and four normal spheroid lines; assay: Dose-dependent effects of SB431542 on the growth of spheroid lines (GEI); format: cell-based, human
# Experimental: Luciferase-expressing cancer and normal spheroids were cultured in the cancer medium and the eL-WRN medium each containing EGF and bFGF, respectively, in the presence of SB431542 at the indicated concentrations. Tested were eleven CRC-TIC spheroid lines (circle) and four normal spheroid lines (square). Shown are the mean GEI of four replicates.
# as §2
# HC6T-PDSX mice = assay: Drug sensitivity tests in PDSX models (tumor volume); format: in vivo, nude mice (BALB/c-nu); conditions: 21 days; erdafitinib 10 mg/kg orally, cetuximab 250 μg i.p. twice a week
# Experimental: Patient-derived spheroids were cultured in a 12-well culture plate to become confluent (4×10^5-4×10^6 cells/plate) and the spheroids were rinsed twice with PBS and placed in a 1.5 ml tube with Matrigel. The volume of the spheroid suspension was adjusted to 100 μl with PBS and the suspension thus obtained was subcutaneously injected into 4-6 week female nude mice (BALB/c-nu) at 1×10^5-9×10^5 cells/mouse.
# PDSX mice were subjected to drug-dosing test when the mean estimated tumor volume reached 300 mm^3. Tumor volume (mm^3) was estimated by the following formula: length×width^2/2. We excluded the following kinds of tumors from the tests as outliers; too small (<100 mm^3), spontaneously shrinking, remaining unchanged in size, or deeply implanted and difficult to be measured.
# The day of the dosing start was defined as day 0, with the tumor volume of each mouse measured twice a week for 3 weeks (days 0-21).
# The relative tumor volume was estimated by calibration to the initial tumor volume on day 0. To evaluate the drug dosing effects, the ratio of tumor volume on day 21 to that on day 0 was compared among the four groups.
# [6] = tested on: HC6T-PDSX and HC20T-PDSX tumors; assay: Histological examinations of PDSX tumors at day 21 (H&E, Ki67); format: in vivo, nude mice (BALB/c-nu); conditions: erdafitinib monotherapy group
# Experimental: Paraffin-embedded tissues of PDSXs were prepared according to the standard procedures. Sections were stained with H&E or immunostained for Ki67.
# [7] = tested on: normal colonic epithelial stem cell spheroids; assay: Drug sensitivity tests in spheroids (GEI); format: cell-based, human; conditions: concentrations below 1 μM
# Experimental: as §1
# [8] = tested on: CRC-TIC spheroid lines that carried wild-type RAS/RAF genes (HC6T, HC9T, HC11T, HC21T); assay: Stimulation of spheroid growth with EGF and/or bFGF, luminescence-based growth monitoring (GEI); format: cell-based, human; conditions: HC6T, HC9T
# Experimental: as §2
# To investigate whether EGF and bFGF helped spheroid proliferation in the cancer medium as described above, we cultured with EGF and/or bFGF four slow-growing CRC-TIC spheroid lines that carried wild-type RAS/RAF genes (HC6T, HC9T, HC11T, HC21T). Because EGF/bFGF facilitated the growths of these spheroid lines substantially (FIG. 3A), we then quantified their effects by the luminescence-based growth monitoring. To calibrate the effects, we introduced the growth effect index (GEI) defined as the relative growth rate of a treated group to that of its solvent-only control in each paired assay. […] The extents of growth promotion by EGF and bFGF were different depending on the spheroid line. […] In another spheroid line (HC21T), the effects were similar between the two growth factors (FIG. 3B).
compound,measurement,setting,value
"CCCCCCCCc1ccc(-c2ccc(C(=O)O)cc2)cc1 [AC55649, 4′-Octyl-[1,1′-biphenyl]-4-carboxylic acid]",activation at 10 µM,[1]; 10 μM each,> 25%
CCN1CCN(c2ccc(Nc3cc(N(C)C(=O)Nc4c(Cl)c(OC)cc(OC)c4Cl)ncn3)cc2)CC1 [BGJ398],growth of spheroid lines (GEI),[2],suppressed the growth
C=CC(=O)N[C@H]1CCOC[C@H]1Nc1ncc2cc(-c3c(Cl)c(OC)cc(OC)c3Cl)ccc2n1 [BLU554],growth of spheroid lines (GEI),[2],suppressed the growth
"Nc1nc(Nc2ccccc2)nc2c1ncn2[C@@H]1O[C@H](CO)[C@@H](O)[C@H]1O [CV1808, 2-phenylaminoadenosine]",growth-promoting effect compared with NECA,"[3]; dose-dependent, FIG. 9A",growth-promoting effect though weaker than that of NECA
same,activation at 10 µM,[1]; 10 μM each,> 25%
same,morphological changes in spheroids,[4],cell flattening and increased sphere size
"CCn1c(=O)[nH]c2cc(Cl)c(Cl)cc21 [DCEBIO, 5,6-Dichloro-1-ethyl-1,3-dihydro-2H-benzimidazol-2-one]",activation at 10 µM,[1]; 10 μM each,> 25%
"Cc1cc(SCc2sc(-c3ccc(C(F)(F)F)c(F)c3)nc2C)ccc1OCC(=O)O [GW0742, [4-[[[2-[3-fluoro-4-(trifluoromethyl)phenyl]-4-methyl-5-thiazolyl]methyl]thio]-2-methylphenoxy]-acetic acid]",effect on spheroid growth in titration,[3],significant effects
same,activation at 10 µM,[1],> 25%
"CC(C)(Sc1ccc(CCN(CCCCC2CCCCC2)C(=O)NC2CCCCC2)cc1)C(=O)O [GW7647, 2-methyl-2-[[4-[2-[[(cyclohexylamino)carbonyl](4-cyclohexylbutyl)amino]ethyl]phenyl]thio]-propanoic acid]",activation at 10 µM,[1]; 10 μM each,> 25%
"CCCc1c(OCCCOc2ccc(OCC(=O)O)cc2)ccc(C(C)=O)c1O [L-165,041, [4-[3-(4-Acetyl-3-hydroxy-2-propylphenoxy)propoxy]phenoxy]acetic acid]",activation at 10 µM,[1]; 10 μM each,> 25%
"CCNC(=O)[C@H]1O[C@@H](n2cnc3c(N)ncnc32)[C@H](O)[C@@H]1O [NECA, 5′-(N-ethyl-carboxamido)-adenosine]",EC50,HC21T spheroid line,0.195 µM
same,morphological changes in spheroids,[4],cell flattening and increased sphere size
"CN[C@H](CC(=O)O)C(=O)O [NMDA, N-Methyl-D-aspartic acid]",activation at 10 µM,[1],> 25%
"NC(=O)c1ccc(-c2nc(-c3ccc4c(c3)OCO4)c(-c3ccccn3)[nH]2)cc1 [SB431542, 4-[4-(1,3-benzodioxol-5-yl)-5-(2-pyridinyl)-1H-imidazol-2-yl]benzamide]",effect on spheroid growth,[5]; at 10 μM,growth inhibition
same,effect on cancer versus normal spheroids,"[5]; indicated concentrations, FIG. 7A",effects on cancer spheroids were less than those on normal spheroids
"Nc1nc2c(ccc3ccccc32)s1 [SKA-31, Naphtho[1,2-d]thiazol-2-ylamine]",effect on spheroid growth in titration,[3],significant effects
same,activation at 10 µM,[1]; 10 μM each,> 25%
"COC(=O)C(Cc1ccc(OCCn2c(=O)sc3cc(C(=O)c4ccccc4)ccc32)cc1)C(=O)OC [compound 526948, [[4-[2-(6-Benzoyl-2-oxo-3(2H)-benzothiazolyl)ethoxy]phenyl]methyl]-1,3-propanedioic acid dimethyl ester]",activation at 10 µM,[1]; 10 μM each,> 25%
COc1cc(OC)cc(N(CCNC(C)C)c2ccc3ncc(-c4cnn(C)c4)nc3c2)c1 [erdafitinib],tumor volume versus control,HC6T-PDSX mice,reduced the tumor volume
same,growth of spheroid lines (GEI),[2],suppressed the growth
same,tumors that disappeared (complete response),[6],One of three
same,growth of normal spheroids,[7],hardly suppressed the growth
COCc1c(-c2cc3cc(C)cc(OC)c3s2)c2c(N)ncnn2c1CN1CCNC(=O)C1 [rogoratinib],growth of spheroid lines (GEI),[2],suppressed the growth
AZD4547,growth of spheroid lines (GEI),[2],suppressed the growth
"bFGF: basic fibroblast growth factor, recombinant human protein","extent of growth promotion, bFGF versus EGF",[8],more effective than EGF
